Source: PMC8113538, “Acute toxicity analysis of an inhibitor of BCL2, Disarib, in rats” (Scientific Reports, 2021)
Where two headings read alike, the source gives them in different places.

What was measured:
mice tumor models = settings: cited from earlier work
BCL2 = system: BCL2; design: method as in PMID 28223017, PMID 27693384; settings: cited from earlier work
[1] = Pharmacokinetics in serum of Wistar rats after oral administration (HPLC); assay type: in vivo, Wistar rats (Rattus norvegicus); settings: 50 mg/kg b. wt oral
Protocol: Wistar rats (Rattus norvegicus) were administered with 50 mg/kg Disarib orally, and blood was collected by heart-puncture method following sacrifice at different time points (15 min, 30 min, 1, 2, 4, 6, 8, 10, 12, 24, 48 and 72 h) following treatment. Blood was allowed to clot, and serum was separated by centrifugation (900×g, 10 min) and deproteinized by adding acetonitrile. Samples for standard calibration curve were prepared by spiking 100 μM Disarib in rat plasma. The supernatant was loaded onto a C18 column, and HPLC analysis was performed in acetonitrile:water gradient, as described before[23],[38] (Shimadzu, Kyoto, Japan). Disarib specific peak were acquired at 232 nm wavelength. At least two mice were sacrificed at each time point for the study. Pharmacokinetic parameters were analysed by using LabSolutions software (Shimadzu, Japan), and the values obtained were plotted with GraphPad Prism (ver5.1) software, where C is predicted concentration and t is time. Data was analysed using nonlinear regression analysis. Maximum drug plasma concentration (Cmax) and Time to reach Cmax was determind by area under the curve versus time curve. Clearance (Cl) and steady state volume of distribution (Vss) were calculated respectively by rate of drug elimination and amount of drug in the body at equilibrium condition vs steady state drug concentration in plasma.
The samples were analyzed by HPLC using the Shimadzu HPLC system. LC was carried out on the C18 analytical column. The mobile phase was the gradient of acetonitrile and water. Disarib specific peaks were detected at 232 nm. The injection volume was 20 μl, and the flow rate was 1.2 ml/min. The standard curves were constructed by plotting the peak area vs. concentration of Disarib[40].

Wistar rats [2] = assay: Histology (H&E) of organs; assay type: in vivo, Wistar rats (Rattus norvegicus); settings: 2000 mg/kg oral, day 14, H&E
Protocol: At the end of the experimental period (14 days), two animals from each group were sacrificed following CO2 asphyxiation. Liver, kidney, intestine, spleen, lungs, and heart were collected, fixed in 4% paraformaldehyde (PFA) and processed for histology, as described before[44]–[46]. For histological studies, tissues from rats treated with the highest dose (2000 mg/kg) and the vehicle control group were selected. Paraffin blocks were prepared and sections were taken using a rotary microtome (Leica Biosystems, Buffalo Grove, IL, USA) with a thickness of 5 µm. Following deparaffination, sections were stained with hematoxylin and eosin (H&E), mounted in DPX, and imaged under a bright-field microscope (Carl Zeiss AxioVision, Oberkochen, Germany).

Wistar rats [3] = assay: Single-dose acute toxicity / LD50 determination with general observation; assay type: in vivo, Wistar rats (Rattus norvegicus)
Protocol: All the studies were designed according to the guidelines of the Central Drug Standard Control Organization (Schedule-Y-CDSCO, Appendix III), India (https://cdsco.gov.in/opencms/opencms/en/Drugs/New-Drugs/). Single-dose toxicity analysis was performed in male Wistar rats. Animals were segregated in groups of five, and Disarib was administered using oral gavage (100, 1000, 2000 mg/kg b. wt.). Carboxymethyl cellulose, used for preparing Disarib, served as vehicle control to feed control animals. Mortality, general appearance, and behavior were initially observed for 24 h. Animals were further observed for 14 days and were further subjected to toxicity analysis.
The median lethal dose was determined in male Wistar rats. […] Disarib was orally administered after making solution using carboxymethyl cellulose (100, 1000, 2000 mg/kg), and lethality was evaluated over 14 days after treatment. Carboxymethyl cellulose treated animals served as vehicle control.
General cage-side examination of the treated and control animals were performed every day during the experiment. General behavior, appearance, skin, hairs, secretion (lachrymation), and death were evaluated daily, according to the guidelines of CDSCO, India[41],[42].
Body weight was recorded on every 4th day from the date of administration of Disarib up to […]. Food and water consumption were monitored every day from the date of administration of the compound. During the present study, on every alternate days ~ 250 g food pellet and ~ 500 ml water were given to each cage (control and treatment groups).

bone marrow cells = assay: Micronucleus assay for genotoxicity; assay type: in vivo; settings: Wistar rats, 50 mg/kg b. wt. oral; 24, 48 and 72 h post-treatment
Protocol: To evaluate genotoxicity caused by Disarib at the effective dose, micronucleus assay was performed[32]–[34]. Wistar rats (n = 6) were orally administered with Disarib (50 mg/kg), and bone marrow cells were collected after 24, 48, and 72 h post-treatment. Bone marrow cells were flushed out in 1X PBS containing EDTA, centrifuged, fixed (2% PFA) and stained with DAPI. Cells exposed to γ-irradiation (4 Gy) served as a positive control for the assay and were imaged using a fluorescence microscope (Nikon, Tokyo, Japan). At least 500 cells were counted from each animal for each time point, and data was plotted and represented as a bar diagram.

[4] = Stability of Disarib in PBS (HPLC); assay type: physicochemical; settings: 37 °C; 0, 2, 4, 6 h; HPLC peak
Protocol: The stability of Disarib (100 μM) was investigated in phosphate-buffered saline (PBS) and in plasma. The blood was collected from rats by heart puncture, and plasma was separated for the study. After the addition of Disarib into plasma or PBS, the mixture was incubated at 37 °C in water bath[25],[26]. The samples were then collected at different time points, 0, 2, 4, and 6 h, mixed manually with acetonitrile (1:1), and analyzed on HPLC[27],[40]. The values plotted represent the mean of three independent experiments. The samples were analyzed by HPLC using the Shimadzu HPLC system. LC was carried out on the C18 analytical column. The mobile phase was the gradient of acetonitrile and water. Disarib specific peaks were detected at 232 nm. The injection volume was 20 μl, and the flow rate was 1.2 ml/min. The standard curves were constructed by plotting the peak area vs. concentration of Disarib[40].

[5] = design: method as in PMID 27693384; settings: mice, cited from earlier work
mice = settings: cited from earlier work

## O=C1Nc2ccccc2/C1=C/c1c(-c2ccc(Br)cc2)nc2sc(Cc3ccc(Cl)cc3)nn12 [Disarib]
Mice tumor models; mice, intraperitoneal route
  tumor regression: efficient tumor regression comparable to that of ABT199
Mice tumor models; oral administration, multiple mice tumor models
  tumor progression: significant reduction in tumor progression
BCL2
  interaction with BCL2: specifically interacted with BCL2
[1]
  maximum concentration (Cmax) in serum: ~ 18 μg/ml
[1]; estimated
  steady state volume of distribution (Vss): 4.16 L/kg
[1]; estimated from rate of drug elimination
  clearance rate: 0.44 mL/min/kg
[1]; serum
  t1/2: 36 h
  time to Cmax (Tmax): 24 h
Wistar rats [2]
  intestine histology: Normal structure and organization
  kidney histology: No glomerular dilation and tubular necrosis
  liver histology: no cellular change in lobular liver texture, hepatocytes and sinusoidal spaces
  lungs and heart histology: did not show difference in the structure of alveoli and cardiac muscles
  spleen histology: no difference in spleen architecture
Wistar rats [3]; Wistar rats, 100, 1000, 2000 mg/kg oral, assessed daily
  food and water consumption: no difference in eating and drinking habits
Wistar rats [3]; Wistar rats, 100, 1000, 2000 mg/kg oral, daily examination
  cage-side signs (behavior, appearance, lachrymation, locomotion, hair, skin): comparable to the vehicle control group
Wistar rats [3]; Wistar rats, 100, 1000, 2000 mg/kg oral, weighed every 4 days up to 32 days
  body weight: gradual increase in body weight of the animals, both in control and treated groups
Wistar rats [3]; Wistar rats, highest dose 2000 mg/kg b. wt. oral
  mortality and visible signs of toxicity: did not cause mortality or any visible sign of toxicity
Wistar rats [3]; Wistar rats, single oral dose, estimated
  Maximum Tolerated Dose (MTD): > 2000 mg/kg
Wistar rats [3]; male Wistar rats, single oral dose, 14 days observation
  LD50: > 2000 mg/kg b. wt
Bone marrow cells
  genotoxicity (micronucleus formation in bone marrow cells): no DNA damage induced by Disarib
[4]
  stability in PBS: stable in PBS up to 6 h
[5]; 10 mg/kg intraperitoneal
  time at which maximum circulating concentration (Cmax) was obtained: 30 min
[5]
  clearance rate (CL): 6.3 mL/min/kg
  t1/2: 2.3 h
mice; highest dose 2000 mg/kg oral
  visible toxicity: did not cause any visible toxicity
mice; oral route
  LD50: > 2000 mg/kg
mice; oral, even at the highest dose
  platelet count: did not affect the platelet count
